{"source": "paper PMC7840603", "about": "“Local Stabilization of Hypoxia-Inducible Factor-1α Controls Intestinal Inflammation via Enhanced Gut Barrier Function and Immune Regulation” (Frontiers in Immunology, 2021)", "assay_in_all_cases": "prolyl hydroxylation assay of HIF-1α peptide, VBC binding by fluorescence polarization", "type_in_all_cases": "biochemical", "key": {"HIF-PHD3": {"molecular_target": "T1, HIF-PHD3 (Homo sapiens, UniProt Q9H6Z9)", "T1 construct": "gene EGLN3", "T1 sequence (Q9H6Z9 whole entry)": "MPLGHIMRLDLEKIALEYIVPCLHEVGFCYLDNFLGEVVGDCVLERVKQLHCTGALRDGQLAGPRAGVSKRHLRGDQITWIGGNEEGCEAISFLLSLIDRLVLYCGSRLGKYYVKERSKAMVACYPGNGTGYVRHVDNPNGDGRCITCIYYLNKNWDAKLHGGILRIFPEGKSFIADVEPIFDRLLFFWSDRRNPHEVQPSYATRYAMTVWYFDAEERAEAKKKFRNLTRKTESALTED"}, "HIF-PHD1": {"molecular_target": "T2, HIF-PHD1 (Homo sapiens, UniProt Q96KS0)", "T2 construct": "gene EGLN2", "T2 sequence (Q96KS0 whole entry)": "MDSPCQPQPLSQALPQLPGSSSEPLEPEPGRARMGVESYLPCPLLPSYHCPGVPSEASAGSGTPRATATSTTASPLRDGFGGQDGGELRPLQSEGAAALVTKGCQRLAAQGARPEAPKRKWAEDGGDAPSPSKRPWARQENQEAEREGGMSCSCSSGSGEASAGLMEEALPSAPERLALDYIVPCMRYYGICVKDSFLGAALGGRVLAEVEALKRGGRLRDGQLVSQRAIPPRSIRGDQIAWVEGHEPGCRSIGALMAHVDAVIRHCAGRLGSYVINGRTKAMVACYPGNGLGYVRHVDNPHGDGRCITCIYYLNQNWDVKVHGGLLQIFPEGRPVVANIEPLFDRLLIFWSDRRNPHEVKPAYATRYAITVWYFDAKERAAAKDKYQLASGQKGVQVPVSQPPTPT"}, "HIF-PHD2": {"molecular_target": "T3, HIF-PHD2 (Homo sapiens, UniProt Q9GZT9)", "T3 construct": "gene EGLN1", "T3 sequence (Q9GZT9 2-426)": "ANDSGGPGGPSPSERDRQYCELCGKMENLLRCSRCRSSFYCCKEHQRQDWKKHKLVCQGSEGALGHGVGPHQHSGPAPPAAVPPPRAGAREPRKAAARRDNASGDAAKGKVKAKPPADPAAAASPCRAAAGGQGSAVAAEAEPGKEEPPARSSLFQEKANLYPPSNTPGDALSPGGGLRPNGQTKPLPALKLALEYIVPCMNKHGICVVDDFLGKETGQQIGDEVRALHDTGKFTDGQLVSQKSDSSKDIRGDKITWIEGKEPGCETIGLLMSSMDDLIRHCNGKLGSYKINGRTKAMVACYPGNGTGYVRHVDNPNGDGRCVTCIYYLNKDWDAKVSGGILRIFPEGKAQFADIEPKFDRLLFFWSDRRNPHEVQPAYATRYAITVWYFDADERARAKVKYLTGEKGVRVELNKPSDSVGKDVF"}}, "data": [{"substance": "CG-598", "values": [{"measurement": "IC50", "setting": "HIF-PHD3", "result": 80, "unit": "nM"}, {"measurement": "IC50", "setting": "HIF-PHD1", "result": 30, "unit": "nM"}, {"measurement": "IC50", "setting": "HIF-PHD2", "result": 20, "unit": "nM"}]}]}
